Test results published in patent US8980933B2, “Combretastatin analogs for use in the treatment of cancer” (Universitat Bayreuth, priority 2010, dated 2015).

Assays:
[1] = system: 1411HP germ cell tumor cell line; assay: SRB-cytotoxicity assay, 1411HP; assay type: cell-based, human; details: for effect on multi-drug resistance of 1411HP cells: compared with cisplatin
Description: The cytotoxic activity of 5b was established by standard colorimetric tests (SRB- and MTT-assays) against various tumor cell lines of different entities. For the SRB cytotoxicity assay, dose-response curves of the testicular germ cell tumor cell lines exposed to drug concentrations of 0.001-10 μM were established using the sulforhodamine-B (SRB) microcuiture colorimetric assay (Papazisis et al. Optimization of the sulforhodamine B colorimetric assay. J. Immunol. Methods 1997, 208, 151-158) and performed as described in: Müller et al. Failure of activation of caspase-9 induces a higher threshold for apoptosis and cisplatin resistance in testicular cancer. Cancer Res. 2003, 63, 513-521. Briefly, cells were seeded into 96-well plates on day 0, at cell densities previously determined to ensure exponential cell growth during the period of the experiment. On day 1, cells were treated with the drugs dissolved in medium to give the appropriate concentrations for indicated times and the percentage of surviving cells relative to untreated controls was determined on day 5.

[2] = Toxicity / tolerability in mice; assay type: in vivo
Description: Prior to testing compound 5b, healthy animals of this type were treated with an ascending range of doses of 5b in order to establish a toxicity profile. […] Suitable dosages were then administered in further tests in a nude mouse xenograft model of a pair of germ cell tumor cell lines, the chemoresistant cell line 1411HP and the chemosensitive cell line H12.1. These cell lines retain their individual in vitro chemosensitivities to cisplatin when grown as xenograft tumors and so may serve as a model of the clinical situation of resistance to chemotherapy (Mueller et al. Cancer Res. 2003; Mueller et al. Tumor Biol. 2006).
Compounds 5b, 6b and 6f were also tested in terms of feasibility of oral administration. Mice received a single dose of 40 mg/kg body weight of 5b, 6b or 6f, respectively. […] Then compounds 6b or 6f were given peroral as dual-dose application on two consecutive days in accordance to the i.p. treatment scheme used for the regression trials but with a 2-fold higher dose of 2×40 mg/kg body weight.

[3] = system: HT-29 colon carcinoma cells; assay: MTT cell growth inhibition, HT-29; assay type: cell-based, human; details: for IC50 concentration: combretastatin A-4 resistant HT-29 cells; for cytotoxicity (comparison): multi-drug resistant HT-29 colon cancer cells
Description: The effects of the compounds 5b, 6b, 8a, and 8e according to the present invention and of the reference compound 25f (Wang et al., J. Med. Chem. 2002, 45, 1697-1711) on cells of the following human tumor cell lines were evaluated: 518A2 melanoma, HL-60 leukemia, HT-29 colon carcinoma, KB-V1/Vbl cervical carcinoma, and MCF-7/Topo breast carcinoma.
The HL-60 cells were obtained from the German Collection of Biological Material (DSMZ), Braunschweig, Germany; the human 518A2 melanoma cells as well as the testicular germ cell tumor cell lines H12.1 and 1411HP were cultured in the department of oncology and hematology, Medical Faculty of the Martin-Luther University, Halle, Germany; the KBV1/Vbl and the MCF-7/Topo cells were obtained from the Institute of Pharmacy of the University Regensburg, Germany; and the colon HT-29 cells from the University Hospital Erlangen, Germany. The HL-60 and the HT-29 cells were grown in RPMI-1640 medium supplemented with 10% fetal calf serum (FCS), 100 IU/mL penicillin G, 100 μg/mL streptomycin sulfate, 0.25 μg/mL amphotericin B and 250 μg/mL gentamycine (all from Gibco, Egenstein, Germany). The 518A2 and the KB-V1/Vbl cells were cultured in Dulbecco's Modified Eagle Medium (D-MEM, Gibco) containing 10% FCS, 100 IU/mL penicillin G, 100 μg/mL streptomycin sulfate, 0.25 μg/mL amphotericin B and 250 μg/mL gentamycine. The MCF-7/Topo cells were grown in E-MEM medium (Sigma) supplemented with 2.2 g/L NaHCO3, 110 mg/L sodium pyruvate and 5% FCS. The cells were maintained in a moisture-saturated atmosphere (5% CO2) at 37° C. in 75-mL culture flasks (Nunc, Wiesbaden, Germany). They were serially passaged following trypsinisation by 0.05% trypsin/0.02% EDTA (PAA laboratories, Clbe, Germany). Mycoplasma contamination was routinely monitored, and only mycoplasma-free cultures were used.
MTT [3-(4,5-dimethylthiazol-2-yl)-2,5-diphenyltetrazolium bromide](ABCR) was used to identify viable cells which reduce it to a violet formazan (Mosmann, J. Immunol. Methods 1983, 65, 55-63). HL-60 leukemia cells (5×10^5/mL), and cells (5×10^4/mL) of 518A2 melanoma, HT-29 colon, KB-V1/Vbl cervix and MCF-7/Topo breast carcinoma were seeded out in 96-well tissue culture plates and cultured for 24 h. Incubation (5% CO2, 95% humidity, 37° C.) of the cells following treatment with the test compounds was continued for 24, 48 or 72 h. Blank and solvent controls were treated identically. MTT in phosphate buffered saline (5 mg/mL) was added to a final concentration of 0.05% (HL-60, 518A2) or 0.1% (HT-29, KB-V1/Vbl, MCF-7/Topo). After 2 h the formazan precipitate was dissolved in 10% sodium dodecylsulfate in DMSO containing 0.6% acetic acid in the case of the HL-60 cells. For the adherent 518A2, KB-V1/Vbl, MCF-7/Topo and HT-29 cells the microplates were swiftly turned to discard the medium before adding the solvent mixture. The microplates were gently shaken in the dark for 30 min and absorbance at 570 nm and 630 nm (background) was measured with an ELISA plate reader. All experiments were carried out in quadruplicate; the percentage of viable cells was calculated as the mean±SD with controls set to 100%.

[4] = system: vascular system of a fertilized chicken embryo; assay: CAM assay; assay type: in vivo; details: 10 nmol applied on the embryonal vessels; up to three days
Description: Compounds of the present invention were tested for anti-angiogenic and vasculature disrupting properties using the CAM assay. In this test the vascular system of a fertilized chicken embryo is used as a model (Wilting et al., Anat. Embryol. 1991, 183, 259-271).
Fertilized chicken eggs received from a nearby farm directly after laying have been incubated at a temperature of 36-38° C. and a relative humidity of 60%. During the growth the eggs have been held in an inclined position and turned from time to time in order to avoid an adherence to the shell. After four days each embryo was transferred into a cavity created by fixing a thin plastic foil on top of a cup and covered. This was done by opening the shell at the flat end where the air sac resides and letting the content slip out. There the growth continued for another 2-4 days until the first blood vessels became visible. Then 10 nmol of the substance to be tested (in 10 μL PBS with 1% DMF) have been applied directly on the embryonal vessels. As a reference PBS was used. Finally incubation continued for up to another three days (Dugan et al., Anat. Rec. 1991, 229, 125-128; Fisher, Tested studies for laboratory teaching 1993, 5, 105-115).

Structure (SMILES)	effect on multi-drug resistance of 1411HP cells [1]	toxicity after oral administration ([2]; peroral dual-dose 2×40 mg/kg on two consecutive days)	toxicity after oral administration ([2]; single dose 40 mg/kg oral)	toxicity after oral administration ([2]; single dose 60 mg/kg peroral)	IC50 concentration [3]	cytotoxicity (comparison) [3]	effect on embryonal blood vessels [4]	IC50 ([1]; Homo sapiens, 1411HP (chemoresistant), 96 h) [nM]	toxicity profile ([2]; healthy mice, ascending range of doses)
COc1ccc(-c2c(-c3cc(Br)c(OC)c(OC)c3)ncn2C)cc1N [compound 6b, 1-methyl-5-(3-amino-4-methoxyphenyl)-4-(3-bromo-4,5-dimethoxyphenyl)-imidazole]	breach of the multi-drug resistance of 1411HP cells	well tolerated and induced only a transient and marginal loss of body weight	No signs of toxicity were observed	No signs of toxicity were observed	single-digit nanomolar range	able to overcome the drug resistance in these cancer cells in vitro	leaving regular vasculature in chicken embryos (CAM assay) alone		
COc1ccc(-c2c(-c3cc(Cl)c(OC)c(OC)c3)ncn2C)cc1N [compound 5b, 1-methyl-5-(3-amino-4-methoxyphenyl)-4-(3-chloro-4,5-dimethoxyphenyl)-imidazole]	breach of the multi-drug resistance of 1411HP cells		No signs of toxicity were observed		single-digit nanomolar range	able to overcome the drug resistance in these cancer cells in vitro	dramatic vessel shrinkage within 24 h after treatment and to a complete degradation of the vascular system within three days	30 to 50	very well tolerated by the mice even at relatively high concentrations
